Here are results for 74 molecules from PubChem BioAssay AID1996.

Values after ≈ are worked out from the molar mass of the structure shown.

What is called solubility (kinetic) is the concentration staying in solution when a stock, usually in DMSO, is diluted into the medium.

The conditions of this data set: buffer; pH 7.4; 200.0 µM.
`Clc1ccc(OCc2noc(-c3ccsc3)n2)c(Cl)c1` displayed a solubility (kinetic) of less than 0.4 µg/mL.
The result for `Cc1ccc(OCC(=O)NCCNC(=O)c2ccco2)cc1` reads 32.9 µg/mL (≈ 109 µM).
The result for `CC(C)[C@@H](N)C(=O)N/N=C/c1ccc2nccnc2c1.Cl` reads greater than 46.2 µg/mL.
The result for `Cc1ccc2c(c1)C(=O)OC1(O)C3C4C=CC(C4)C3C(=O)N21` (centres undefined) reads greater than 44.6 µg/mL; that for `CCOC(=O)CN1C(=O)CC(c2ccccc2)C1=O` (centres undefined), greater than 39.2 µg/mL.
`COc1cc2ccccc2cc1C(=O)Nc1ccccc1Cl`: the solubility (kinetic) is less than 0.7 µg/mL.
The result for `N#C/C(=C\C=C\c1ccccc1)C(=O)N1CCCC1` reads 7.3 µg/mL (≈ 28.9 µM).
For `Cc1ccc2[nH]c3c(c2c1)CCCC3NC(=O)CCl` (centres undefined) the value was greater than 41.5 µg/mL.
The result for `O=C(CSc1nccc(=O)[nH]1)Nc1ccc(Oc2ccccc2)cc1` reads 11.5 µg/mL (≈ 32.5 µM); that for `CCC(=O)Nc1nc(-c2cc([N+](=O)[O-])cs2)cs1`, 1 µg/mL (≈ 3.53 µM); that for `O=C1c2ccccc2C(=O)N1CCn1ccnc1`, greater than 36.2 µg/mL.
For the molecule `Cc1cccc(NC(=O)Nc2ccc([N+](=O)[O-])cc2)n1`, the solubility (kinetic) was less than 0.1 µg/mL.
For `COc1ccc(C)cc1NC(=O)NC1CCCc2ccccc21` (centres undefined) the value was less than 0.3 µg/mL; for `CCCS(=O)(=O)N1CCC(C(=O)NCCC(C)C)CC1`, greater than 45.7 µg/mL; for `COCCn1c(SC2CCOC2=O)nc2ccccc2c1=O` (centres undefined), greater than 48.1 µg/mL.
For `O=[N+]([O-])c1ccc(SCCO)nc1SCCO` the value was greater than 41.4 µg/mL; for `COC(=O)C1=C(C)N(C)C(=O)NC1c1cccc2ccccc12` (centres undefined), 30.2 µg/mL (≈ 97.3 µM).
The result for `CCCCNC(=S)N1CCN(C)CC1.O=C(O)C(=O)O` reads greater than 45.8 µg/mL; that for `CC(C)c1ccc(NC2CCCN(C(=O)c3ccncc3)C2)cc1` (centres undefined), 47.1 µg/mL (≈ 146 µM); that for `C=CCn1c(SCC(=O)Nc2sc3c(c2C#N)CCC(C)C3)nc2cc(C(=O)O)ccc2c1=O` (centres undefined), 15 µg/mL (≈ 30.3 µM).
`O=C(COC(=O)c1ccc(OC(F)(F)F)cc1)Nc1ncccn1` showed a solubility (kinetic) of 10.1 µg/mL (≈ 29.6 µM).
`COCCOc1cc(COC)nc(-c2cccc(C)c2)n1` displayed a kinetic solubility of 25.3 µg/mL (≈ 87.7 µM).
The result for `CN1CCN(CCC(=O)Nc2ccc(Br)cc2)CC1` reads 48.5 µg/mL (≈ 149 µM); that for `Cc1ccc(OCC(=O)N2CCc3ccccc3C2)cc1`, greater than 42.2 µg/mL; that for `Cn1cccc1C(=O)NC(=O)COC(=O)c1ccc(S(C)(=O)=O)cc1`, 8.7 µg/mL (≈ 23.9 µM).
The result for `O=[N+]([O-])c1ccc(COc2ncnc3ccccc23)cc1` reads 27.7 µg/mL (≈ 98.5 µM); that for `COc1ccc(CCNC(=O)Nc2cccs2)c(OC)c1`, 15.6 µg/mL (≈ 50.9 µM); that for `Cc1ccc(S(=O)(=O)/N=C(/Nc2nc(C)cs2)c2ccccc2)cc1`, 8 µg/mL (≈ 21.5 µM).
The result for `CNC(=S)Nc1ccc(OC(F)(F)F)cc1` reads 35.4 µg/mL (≈ 141 µM); that for `CCOc1ccccc1NC(=O)C(C)SCc1ccccc1` (centres undefined), 1.4 µg/mL (≈ 4.44 µM); that for `CCOC(=O)/C(=C\c1ccccc1)NC(=O)c1ccccc1`, greater than 44.3 µg/mL.
`CCc1ccc(S(=O)(=O)n2c(C)nc3ccccc32)cc1` yielded a kinetic solubility of 40.3 µg/mL (≈ 134 µM).
For `CC(=O)N(C)c1ccc(NC(=O)Cc2cccs2)cc1` the value was 42.6 µg/mL (≈ 148 µM).
As to `Cc1[nH]c2ccccc2c1C(=O)C(C)OC(=O)c1ccc(Cl)nc1` (centres undefined), the solubility (kinetic) was 26.6 µg/mL (≈ 77.6 µM). Compared with the last molecule, the solubility kinetic is about 1.6-fold lower.
For `CC1CCCC1/C(=N/O)c1ccccc1` (centres undefined) the value was 16.9 µg/mL (≈ 83.1 µM).
For `COc1ccccc1-c1nnc(SCC(=O)N2CCCC2)o1` the value was greater than 47.9 µg/mL.
For `COCc1c(C(=O)Nc2cccc(S(=O)(=O)N3CCCCC3)c2)oc2ccccc12` the value was 3.1 µg/mL (≈ 7.23 µM); for `COc1cc(/C=C(\C#N)C(=O)Nc2ccccn2)ccc1O`, 5.9 µg/mL (≈ 20 µM); for `Cc1nn(CC(=O)NCCCN2CCCC2=O)c(C)c1[N+](=O)[O-]`, greater than 48.5 µg/mL.
As for `COc1ccc(S(=O)(=O)NC2CCCCCC2)c(OC)c1`, the solubility (kinetic) was found to be 9.4 µg/mL (≈ 30 µM).
For `CC1(C)c2cc(O)ccc2OC1N1CCOCC1` (centres undefined) the value was greater than 37.4 µg/mL; for `O=C(O)Cn1cc(C(=O)C(F)(F)F)c2ccccc21`, greater than 40.7 µg/mL; for `COC(=O)c1cc(S(=O)(=O)N2CCCCC2)c[nH]1`, greater than 40.8 µg/mL.
As for `CCOC(=O)C1CCN(S(=O)(=O)c2c(Cl)ccc3nonc23)CC1`, the kinetic solubility was greater than 56.1 µg/mL.
The result for `CCCOc1ccc(C(=O)OCCN(CC)CC)cc1N.Cl` reads greater than 49.6 µg/mL; that for `CCOC(=O)NC(=S)Nc1ccc(OC)cc1`, 25.6 µg/mL (≈ 101 µM); that for `CC1=CC(C)(C)NC(=S)N1c1ccc(C)cc1C`, 2.1 µg/mL (≈ 8.06 µM).
`O=C(O)/C=C\C(=O)Nc1ccccc1N1CCN(c2ccccc2)CC1`: the solubility (kinetic) was found to be 52 µg/mL (≈ 148 µM).
`CCOC(=O)C1CCCN(Cc2cccc(Oc3ccccc3)c2)C1` (centres undefined) came in with a kinetic solubility of 3.1 µg/mL (≈ 9.13 µM).
Molecule `CC1=NCCN1S(=O)(=O)c1c(C(C)C)cc(C(C)C)cc1C(C)C` came in with a solubility (kinetic) of 16.8 µg/mL (≈ 47.9 µM).
The molecule `Cc1nc(COc2cccc(Cl)c2)sc1C(=O)/C=C/N(C)C` showed a solubility (kinetic) greater than 50.5 µg/mL.
In turn, `CCOc1ccc(N2CC(C(=O)NC3=NCCS3)CC2=O)cc1` (centres undefined) showed a kinetic solubility greater than 50 µg/mL.
`O=C(COC(=O)C1=COCCO1)NCc1ccc(Cl)cc1` came in with a kinetic solubility of 44.7 µg/mL (≈ 143 µM).
For `CCC1Cc2c(nc(N)c3c(N)nc(N4CCOCC4)c(C#N)c23)O1` (centres undefined) the value was 8.9 µg/mL (≈ 26.1 µM); for `Clc1ccc(C2Nc3cccc4cccc(c34)N2)cc1Cl`, 0.4 µg/mL (≈ 1.27 µM).
For `COc1cc2c(cc1OC)C(c1ccccc1Cl)N(C)CC2` (centres undefined) the value was 36.4 µg/mL (≈ 115 µM); for `COc1ccc(Nc2nnc(C)c(=O)[nH]2)c(OC)c1`, greater than 39.3 µg/mL.
`CC(C)(C)c1cc(NC(=O)c2ccco2)no1` showed a solubility (kinetic) greater than 35.1 µg/mL.
`CCN(CC)CCNC(=O)c1cc2ccccc2nc1Cl`: the solubility (kinetic) is 31.2 µg/mL (≈ 102 µM).
For `CCC(=NCc1cccnc1)c1c(O)n(-c2ccc(C)cc2)c(=O)[nH]c1=O` the value was 31.6 µg/mL (≈ 86.7 µM); for `Cc1ccc(OCC(=O)N2CCCCCCC2)cc1C`, 22.6 µg/mL (≈ 82.1 µM); for `CCCC[N+]1(C)[C@@H]2CC(OC(=O)[C@H](CO)c3ccccc3)C[C@H]1[C@@H]1O[C@@H]12.[Br-]` (some centres undefined), greater than 66.1 µg/mL.
Molecule `CC(C1CC1)N(Cc1ccccc1)C(=O)NC(=O)c1ccccc1` (centres undefined) registered a solubility (kinetic) of 46.1 µg/mL (≈ 143 µM).
The result for `Cc1cccc(C)c1NC(=S)N1CC(C)OC(C)C1` (centres undefined) reads greater than 41.8 µg/mL.
Turning to `CC(C)(C)c1ccc(-c2noc(-c3ccc4c(c3)CCO4)n2)cc1`, the kinetic solubility was found to be 0.8 µg/mL (≈ 2.5 µM).
Molecule `Cc1ccc(C)c(NC(=O)CN(C)C(=O)c2cc3ccccc3oc2=O)c1` yielded a solubility (kinetic) greater than 54.7 µg/mL.
The result for `COC(=O)c1ccccc1S(=O)(=O)N1CCn2cccc2C1C` (centres undefined) reads 43.2 µg/mL (≈ 129 µM); that for `Cn1cc(/C=N/NC(N)=S)c2ccccc21`, greater than 34.8 µg/mL; that for `Cl.NS(=O)(=O)c1ccc(CCNC/C=C/c2ccccc2)cc1`, greater than 52.9 µg/mL.
`O=C(CCCc1nc(-c2ccc(Cl)cc2)no1)NC1CCCCC1` came in with a kinetic solubility of 2.1 µg/mL (≈ 6.04 µM).
For `FC(F)(F)c1ccccc1NC(=S)N1CCCC1` the value was 33 µg/mL (≈ 120 µM).
With `O=C(O)/C=C/C(=O)Nc1ccc(OC(F)F)cc1`, the solubility (kinetic) is greater than 38.6 µg/mL.
The result for `N#Cc1ccccc1NC(=O)COC(=O)CN1C(=O)C2CCCCC2C1=O` (centres undefined) reads greater than 55.4 µg/mL.
The molecule `CC1(C)CC(NC(=O)C2CCCCC2)CC(C)(C)N1` had a solubility (kinetic) of 35.2 µg/mL (≈ 132 µM).
